Reference: ChEMBL document CHEMBL5247651, “Oxadiazolopyridine Derivatives as Efficacious Mitochondrial Uncouplers in the Prevention of Diet-Induced Obesity” (J Med Chem, 2023)
In brackets after ≈: the same amount, converted by molar mass. Activity calls are given as the source filed them. The rule behind the calls is not given here.

Key:
[1] = Cmax in C57BL/6 mouse at 10 mg/kg, po administered via gavage measured upto 24 hrs by LC/MS-MS analysis; format: ADME, organism-based; design: dose 10 mg/kg, time < 24 hrs, route po; settings: in vivo
Mus musculus [2] = experiment: Anti-obesity activity in high-sugar western diet induced obesity C57BL/6j mouse model assessed as decrease in gonadal white adipose tissue weight at 130 mg/kg per day, po administered via gavage daily measured after 3 weeks; format: functional, organism-based
[3] = Half life in C57BL/6 mouse at 10 mg/kg, po administered via gavage measured upto 24 hrs by LC/MS-MS analysis; format: ADME, organism-based; settings: in vivo
Mus musculus [4] = experiment: Anti-obesity activity in C57BL/6j mouse assessed as decrease in serum glucose level at 130 mg/kg per day, po administered via gavage daily measured after 3 weeks; format: functional, organism-based
Mus musculus [5] = experiment: Anti-obesity activity in high-sugar western diet induced obesity C57BL/6j mouse model assessed as decrease in serum glucose level at 130 mg/kg per day, po administered measured after 2 weeks; format: functional, organism-based
Mus musculus [6] = experiment: Anti-obesity activity in high-sugar western diet induced obesity C57BL/6j mouse model assessed as decrease in fat-free lean mass at 130 mg/kg per day, po administered measured after 2 weeks by EchoMRI analysis; format: functional; design: scale not given: the % may be the effect or the level left
Mus musculus [7] = experiment: Anti-obesity activity in high-sugar western diet induced obesity C57BL/6j mouse model assessed as decrease in body weight at 130 mg/kg per day, po administered for 14 days; format: functional, organism-based; settings: time 14.0 day
[8] = Drug distribution in fasted C57BL/6j mouse liver at 10 mg/kg, po measured after 2 hrs by LC-MS/MS analysis; format: ADME, organism-based; settings: in vivo
[9] = Half life in C57BL/6 mouse at 1 mg/kg, iv measured upto 24 hrs by LC/MS-MS analysis; format: ADME, organism-based; settings: in vivo
Mus musculus [10] = experiment: Anti-obesity activity in C57BL/6j mouse assessed as decrease in serum insulin level at 130 mg/kg per day, po administered via gavage daily measured after 3 weeks by ELISA assay; format: functional, organism-based
[11] = Observed apparent volume of distribution in C57BL/6 mouse at 1 mg/kg, iv measured upto 24 hrs by LC/MS-MS analysis; format: ADME, organism-based; settings: in vivo, read-out: Vz
L6 [12] = experiment: Induction of mitochondrial respiration in rat L6 cells assessed as fold increase in basal respiration at 25 uM in presence of antimycin and rotenone; format: functional, cell-based
[13] = Apparent permeability across basolateral to apical side in human Caco-2 cells; format: ADME, cell-based
[14] = Observed apparent volume of distribution in C57BL/6 mouse at 10 mg/kg, po measured upto 24 hrs by LC/MS-MS analysis; format: ADME, organism-based; settings: in vivo
Mus musculus [15] = experiment: Anti-obesity activity in high-sugar western diet induced obesity C57BL/6j mouse model assessed as decrease in fat-free mass body composition at 130 mg/kg per day, po administered measured after 2 weeks by EchoMRI analysis (reference value: 77%); format: functional; design: scale not given: the % may be the effect or the level left
[16] = Drug distribution in fasted C57BL/6j mouse brown adipose tissue at 10 mg/kg, po measured after 2 hrs by LC-MS/MS analysis; format: ADME, organism-based; settings: in vivo
Mus musculus [17] = experiment: Anti-obesity activity in high-fat diet induced obesity C57BL/6 mouse model assessed as increase in energy expenditure at 130 mg/kg, po measured upto 4 hrs by indirect calorimetric analysis; format: functional, organism-based
Mus musculus [18] = experiment: Anti-obesity activity in C57BL/6j mouse assessed as effect on plasma free fatty acid level at 130 mg/kg per day, po administered via gavage daily measured after 3 weeks; format: functional, organism-based
[19] = mouse, in vivo, po, 10 mg/kg, 24 h
[20] = Induction of mitochondrial respiration in rat L6 cells assessed as fold increase in basal respiration at 25 uM followed by BAM15 addition; format: functional
Mus musculus [21] = experiment: Anti-obesity activity in high-sugar western diet induced obesity C57BL/6j mouse model assessed as reversal of fat mass gain at 130 mg/kg per day, po administered via gavage daily measured after 3 weeks; format: functional, organism-based
[22] = Induction of mitochondrial respiration in rat L6 cells assessed as fold increase in basal respiration upto 200 uM; format: functional
[23] = Drug distribution in fasted C57BL/6j mouse liver at 130 mg/kg, po by LC-MS/MS analysis; format: ADME, organism-based; settings: in vivo
L6 [24] = experiment: Induction of mitochondrial respiration in rat L6 cells assessed as fold increase in basal respiration at 25 uM in presence of oligomycin; format: functional, cell-based
[25] = Cmax in Swiss albino mouse at 10 mg/kg, po administered via gavage measured upto 24 hrs by LC/MS-MS analysis; format: ADME, organism-based; design: time < 24 hrs, dose 10 mg/kg, route po; settings: in vivo
[26] = Apparent permeability across apical to basolateral side in human Caco-2 cells; format: ADME, cell-based
[27] = Cmax in C57BL/6 mouse at 1 mg/kg, iv measured upto 24 hrs by LC/MS-MS analysis; format: ADME, organism-based; design: time < 24 hrs, dose 1 mg/kg, route iv; settings: in vivo
[28] = Induction of mitochondrial uncoupling activity in rat L6 cells assessed as increase in oxygen consumption rate at 0.37 to 200 uM measured after 90 mins by agilent Seahorse XF analyzer relative to BAM15; format: functional; settings: dose 0.37-200 µM, 1.5 h
Mus musculus [29] = experiment: Anti-obesity activity in high-fat diet induced obesity C57BL/6 mouse model assessed as increase in carbohydrate oxidation at 130 mg/kg, po measured upto 4 hrs by indirect calorimetric analysis; format: functional, organism-based
Mus musculus [30] = experiment: Anti-obesity activity in C57BL/6j mouse assessed as increase in glucose level at 130 mg/kg per day, po administered via gavage daily measured after 3 weeks by glucose tolerance test; format: functional, organism-based
[31] = Drug distribution in fasted C57BL/6j mouse brown adipose tissue at 130 mg/kg, po by LC-MS/MS analysis; format: ADME, organism-based; settings: in vivo
Mus musculus [32] = experiment: Anti-obesity activity in high-sugar western diet induced obesity C57BL/6j mouse model assessed as reversal of body weight at 130 mg/kg per day, po administered via gavage daily measured after 3 weeks; format: functional, organism-based
Mus musculus [33] = experiment: Anti-obesity activity in high-fat diet induced obesity C57BL/6 mouse model assessed as increase in carbon dioxide production at 130 mg/kg, po measured upto 4 hrs by indirect calorimetric analysis; format: functional, organism-based
Mus musculus [34] = experiment: Anti-obesity activity in high-sugar western diet induced obesity C57BL/6j mouse model assessed as decrease in muscle weight at 130 mg/kg per day, po administered via gavage daily measured after 3 weeks; format: functional, organism-based
Mus musculus [35] = experiment: Anti-obesity activity in high-sugar western diet induced obesity C57BL/6j mouse model assessed as decrease in retroperitoneal fat pad weight at 130 mg/kg per day, po administered via gavage daily measured after 3 weeks; format: functional, organism-based
Mus musculus [36] = experiment: Anti-obesity activity in high-sugar western diet induced obesity C57BL/6j mouse model assessed as effect on free fatty acid level at 130 mg/kg per day, po administered via gavage daily measured after 3 weeks by fluorometric analysis; format: functional, organism-based
Mus musculus [37] = experiment: Anti-obesity activity in high-sugar western diet induced obesity C57BL/6j mouse model assessed as decrease in rectal temperature at 130 mg/kg per day, po administered via gavage daily measured after 1 hr at day 11; format: functional, organism-based
[38] = Induction of mitochondrial uncoupling activity in rat L6 cells assessed as increase in oxygen consumption rate measured after 90 mins by agilent Seahorse XF analyzer; format: functional, cell-based
[39] = Solubility of compound at pH 7.4; format: physicochemical; settings: buffer

Oc1nc2nonc2cc1Nc1c(F)c(F)c(F)c(F)c1F
Cmax [1]: 87 µM
Activity (Mus musculus [2]): Active
t1/2 [3]: 1.2 h
Activity (Mus musculus [4]): Active
Activity (Mus musculus [5]): Active
Activity (Mus musculus [6]): 4%
Activity (Mus musculus [7]): Active
Drug uptake [8]: Active
half-life [9]: 1.15 h
Activity (Mus musculus [10]): Active
Vd [11]: 0.07 L/kg
Activity (L6 [12]): inactive
Papp B→A [13]: 1.6 ×10⁻⁶ cm/s
Vz [14]: 0.74 L/kg
Activity (Mus musculus [15]): 84%
Drug uptake [16]: Active
Activity (Mus musculus [17]): Active
Activity (Mus musculus [18]): inactive
F [19]: 75%
fold change (FC) [20]: 3
Activity (Mus musculus [21]): Active
fold change (FC) [22]: 2
Drug uptake [23]: Active
Activity (L6 [24]): Active
Cmax [25]: 57 µM
Papp A→B [26]: 12.4 ×10⁻⁶ cm/s
Cmax [27]: 16 µM
Activity [28]: 48%
Activity (Mus musculus [29]): Active
Activity (Mus musculus [30]): inactive
Drug uptake [31]: Active
Activity (Mus musculus [32]): Active
Activity (Mus musculus [33]): Active
Activity (Mus musculus [34]): inactive
Activity (Mus musculus [35]): inactive
Activity (Mus musculus [36]): inactive
Activity (Mus musculus [37]): Active
EC50 [38]: 17.1 µM
pEC50 [38]: 4.8
solubility [39]: 18.6 µM (≈ 5.92 µg/mL)
